Source: US20190119504A1 (Dow Global Technologies LLC, priority 2016, published 2019)

Tests used:
[1] = system: Aspergillus niger DSMZ 1957; assay: Fungal efficacy testing of dry paint film, modified ASTM 5590; assay type: cell-based; settings: A. niger 1957, three weeks
Procedure: (§1) These paints were then diluted with a biocide free acrylic/silicone based paint and mixed to prepare targeted concentrations of biocide combinations for the testing. The total biocides concentrations obtained were 125, 250, 500, 1000, 2000 and 5000 ppm. After biocides addition or dilution, the paints were mixed 90 seconds with the horse power shaker (AXEL 75M3372/Agitateur SO-10MI) until uniformity was achieved. […] After one day, the paints were applied to Schleicher & Schuell filter paper at 280 μm wet film thickness and dried for 3 days at room temperature avoiding direct exposure to sunlight. […] This sample size allowed for an agar border when the sample disc was placed into the well of the test plate.
ASTM 5590 is a standard accelerated test method for determining resistance of various coatings (including paints) to fungal defacement. To accommodate for high-throughput screening, this method was scaled down from petri plates to 6-well plates. […] A single coupon was placed with a pair of sterile forceps at the center of the agar plug (on top) with the painted surface facing upwards.
(§2) The SI is calculated based on F. C. Kull et.
SI=Qa/QA+Qb/QB • Qa=the concentration of Antimicrobial A in the blend • QA=the concentration of Antimicrobial A as the only biocide • Qb=the concentration of Antimicrobial B in the blend • QB=the concentration of Antimicrobial B as the only antimicrobial
SI value of <1 in the formula indicates a synergism of the blended biocides exists.

Chlorella sp. ATCC 7516 = assay: Algal efficacy testing of dry paint film, modified ASTM 5589; assay type: cell-based
Procedure: as §1
Algal efficacy was tested according to modified ASTM 5589 which is a standard accelerated test method for determining resistance of various coatings (including paints) to algal defacement. To accommodate for high-throughput screening, this method was scaled down from petri plates to 6-well plates. Bold Modified Basal Freshwater Nutrient Solution was used as growth medium for the algal culture and Bold's agar was used for the efficacy testing. A single coupon was placed with a pair of sterile forceps at the center of the agar plug (on top) with the painted surface facing upwards. The algal inoculum was prepared by diluting an exponentially growing culture of Chlorella sp. to 1×10^6 cfu/ml.
Each well that contains a tested coupon was inoculated with 1750 μl of algal suspension (1×10^6 cfu/ml) making sure that the whole surface (paint film as well as the agar surrounding it) was evenly covered. The plates were incubated at room temp (21° C.-25° C.) with cyclic exposure to 14 hours fluorescent light followed by 10 hours darkness, for a period of three weeks.
as §2
SI=Qa/QA+Qb/QB • Qa=the concentration of Antimicrobial A in the blend • QA=the concentration of Antimicrobial A as the only biocide • Qb=the concentration of Antimicrobial B in the blend • QB=the concentration of Antimicrobial B as the only antimicrobial […]

| Compound | Total conc, ppm (concentration used as minimum inhibitory concentration for SI; pass level 75% inhibition; where pass not reached, concentration tested) ([1]; total active ingredient in liquid paint, dry film) [ppm] | inhibition at 2000 ppm ([1]; Aspergillus niger, DSMZ1957, 504 h, total conc 2000 ppm, area covered, increments of 5%) [%] | inhibition at 5000 ppm (Chlorella sp. ATCC 7516; 504 h, total conc 5000 ppm, three weeks, color intensity vs blank) [%] | Total conc, ppm (concentration used as minimum inhibitory concentration for SI; pass level 75% inhibition) (Chlorella sp. ATCC 7516; total active ingredient in liquid paint, dry film, three weeks) [ppm] | inhibition at 10000 ppm ([1]; Aspergillus niger, DSMZ1957, 504 h, total conc 10000 ppm, area covered, increments of 5%) [%] | inhibition at 1000 ppm (Chlorella sp. ATCC 7516; 504 h) [%] |
| --- | --- | --- | --- | --- | --- | --- |
| Cc1ccc(S(=O)(=O)C(I)I)cc1 [DIMTS, Diiodomethyl p-tolyl sulfone] | 2000 | 95 | 95 | 5000 |  |  |
| O=c1[nH]c2c(c(=O)n1C1CCCCC1)CCC2 [LENACIL, 3-Cyclohexyl-6,7-dihydro-1H-cyclopentapyrimidine-2,4-(3H,5H)-dione] |  |  |  |  | 0 | 90 |
